According to patent US8916551B2, “Heterocyclic compound and use thereof” (Takeda Pharmaceutical Company Limited, priority 2010, dated 2014):

target: T1, AMPA receptor (human GluR1 flip/stargazin expressed in CHO-K1 cells) (Homo sapiens, UniProt P42261); test: AMPA receptor function enhancing activity using calcium influx as index; format: cell-based; settings: test compound 30 μM with 3 mM glutamic acid, change in fluorescence level in 3 min, 100% = 3 mM glutamic acid + 300 μM cyclothiazide, 0% = 3 mM glutamic acid only
T1 construct: expressed in transfected cells; host or cells: CHO-K1
T1 sequence (P42261 19-906 isoform P42261-2 limits assumed): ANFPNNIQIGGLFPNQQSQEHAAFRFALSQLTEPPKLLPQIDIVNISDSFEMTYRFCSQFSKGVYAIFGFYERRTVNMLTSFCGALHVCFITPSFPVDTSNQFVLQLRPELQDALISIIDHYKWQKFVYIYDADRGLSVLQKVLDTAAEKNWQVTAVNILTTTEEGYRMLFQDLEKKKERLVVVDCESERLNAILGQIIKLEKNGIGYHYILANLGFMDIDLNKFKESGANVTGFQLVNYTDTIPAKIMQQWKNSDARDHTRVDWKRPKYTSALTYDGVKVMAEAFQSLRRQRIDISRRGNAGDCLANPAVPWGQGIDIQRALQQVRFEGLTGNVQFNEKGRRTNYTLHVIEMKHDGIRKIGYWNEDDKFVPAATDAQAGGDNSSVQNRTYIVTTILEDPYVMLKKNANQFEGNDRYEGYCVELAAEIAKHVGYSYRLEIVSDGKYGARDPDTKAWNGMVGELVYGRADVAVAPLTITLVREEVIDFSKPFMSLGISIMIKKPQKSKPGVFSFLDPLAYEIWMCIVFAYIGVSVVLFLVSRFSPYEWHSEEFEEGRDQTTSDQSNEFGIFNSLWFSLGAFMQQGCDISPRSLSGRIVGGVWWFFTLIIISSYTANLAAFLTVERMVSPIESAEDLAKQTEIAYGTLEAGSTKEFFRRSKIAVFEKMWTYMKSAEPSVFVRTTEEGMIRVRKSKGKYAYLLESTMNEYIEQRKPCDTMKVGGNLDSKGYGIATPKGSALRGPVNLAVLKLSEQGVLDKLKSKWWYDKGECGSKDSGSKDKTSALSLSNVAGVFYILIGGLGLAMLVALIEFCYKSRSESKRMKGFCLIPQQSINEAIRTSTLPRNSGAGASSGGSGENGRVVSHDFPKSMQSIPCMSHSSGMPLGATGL
T1 sequence (Q9Y698 whole entry partner): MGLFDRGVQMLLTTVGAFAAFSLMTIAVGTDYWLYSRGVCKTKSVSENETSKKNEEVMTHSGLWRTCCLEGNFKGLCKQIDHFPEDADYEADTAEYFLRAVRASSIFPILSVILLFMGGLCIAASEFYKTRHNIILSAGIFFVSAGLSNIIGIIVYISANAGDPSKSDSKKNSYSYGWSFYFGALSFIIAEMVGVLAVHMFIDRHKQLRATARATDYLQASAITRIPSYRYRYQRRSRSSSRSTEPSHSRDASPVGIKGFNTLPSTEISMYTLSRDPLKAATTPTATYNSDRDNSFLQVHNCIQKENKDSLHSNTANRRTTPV
Excerpt: Human GluR1 flip cDNA was amplified by PCR using forward primer […] (SEQ ID NO: 1) and reverse primer […] (SEQ ID NO: 2) artificially synthesized using human brain-derived cDNA (BD Bio science) as a template. The amplified product was digested with restriction enzymes EcoRI, NotI (TAKARA SHUZO CO. LTD.), and incorporated into the same site of pcDNA3.1(+) (Invitrogen) to construct pcDNA3.1(+)/human GluR1 flip gene. Human stargazin cDNA was amplified by PCR using forward primer […] (SEQ ID NO: 3) and reverse primer […] (SEQ ID NO: 4) artificially synthesized using human hippocampus cDNA as a template. The amplified product was digested with restriction enzymes XhoI, BamHI (TAKARA SHUZO CO. LTD.), and incorporated into the same site of pcDNA3.1(−) (Invitrogen) to construct pcDNA3.1 Zeo(−)/human stargazin gene.
CHO-K1 cells passaged in a culture medium (Ham's F12 medium (Invitrogen) added with 10% inactivated fetal bovine serum (Morgate) and penicillin, streptomycin (Invitrogen)) were detached with 0.05% trypsin, 0.53 mM EDTA (Invitrogen) diluted with D-PBS(−). The detached cells were suspended in a culture medium, and recovered by a centrifugation operation at 1,000 rpm. The recovered cells were suspended again in D-PBS(−), and added to a 0.4 cm electroporation cuvette (BioRad). pcDNA3.1(+)/human GluR1 flip gene (5 μg) and pcDNA3.1 Zeo(−)/human stargazin gene (15 μg) were added, and the mixture was introduced into CHO-K1 cells using Gene Pulser II (BioRad) under the conditions of 950 μFd, […]. The introduced cells were cultured overnight in a culture medium and, the next day, plated in a 96 well plate at 250 cells/well using a selection medium (culture medium added with Zeocin (Invitrogen) to 250 μg/mL). Clones showing drug resistance were selected, and GluR1 flip/stargazin expressing clones were selected by an assay method using calcium influx as an index as shown below.
CHO-K1/GluR1 flip/stargazin expressing cells were plated on a 96 well black transparent bottom plate (Costar) at 2×10^4 cells/well, and cultured in a 37° C., CO2 incubator (SANYO Electric Co., Ltd.) for 2 days. The medium in the cell plate was removed, and assay buffer A (D-MEM (Invitrogen), 0.1% BSA (Serogical Protein), 20 mM HEPES (Invitrogen)) was added at 50 μL/well. A calcium indicator (Calcium 4 Assay Kit, Invitrogen) added with 2.5 mM probenecid (Invitrogen) was added at 50 μL/well and the well was left standing in 37° C., CO2 incubator for 1 hr. The cell plate was set in CellLux (PerkinElmer), a mixture (50 μL) of 9 mM glutamic acid diluted with assay buffer B (HBSS (Invitrogen), 0.1% BSA, 20 mM HEPES) (final concentration 3 mM) and a test compound (test compound concentration 30 μM) was added, and the amount of change in fluorescence level in 3 min was measured. In the definition here, the amount of change in fluorescence level of well added with glutamic acid at final concentration 3 mM and 300 μM cyclothiazide (TOCRIS) is 100%, the amount of change in fluorescence level of well added only with glutamic acid at final concentration 3 mM is 0%, and the compound activity was calculated according to the following formula. activity(%)=(X−C)/(T−C)×100 T: amount of change in fluorescence level of well added with glutamic acid at final concentration 3 mM and 300 μM cyclothiazide C: amount of change in fluorescence level of well added only with glutamic acid at final concentration 3 mM X: amount of change in fluorescence level of well added with test compound

SMILES	activity (%)
O=S1(=O)CCN2C=C(Cl)C=C(c3ccc(OCC4CCOCC4)cc3)C2=N1 [Example 253, 7-chloro-9-[4-(tetrahydro-2H-pyran-4-ylmethoxy)phenyl]-3,4-dihydropyrido[2,1-c][1,2,4]thiadiazine 2,2-dioxide]	80%
CC(F)(F)c1ccc(C2CCCN3CCS(=O)(=O)N=C23)cc1 (stereo not shown) [Example 174, 9-[4-(1,1-difluoroethyl)phenyl]-3,4,6,7,8,9-hexahydropyrido[2,1-c][1,2,4]thiadiazine 2,2-dioxide]	79%
Cc1cc(Cl)ccc1Oc1ccc([C@@H]2CCCN3CCS(=O)(=O)N=C23)cc1 [Example 215, (9S)-9-[4-(4-chloro-2-methylphenoxy)phenyl]-3,4,6,7,8,9-hexahydropyrido[2,1-c][1,2,4]thiadiazine 2,2-dioxide]	67%
O=S1(=O)CCN2C=CC=C(c3ccc(Oc4cncc(C(F)(F)F)c4)cc3)C2=N1 [Example 259, 9-(4-{[5-(trifluoromethyl)pyridin-3-yl]oxy}phenyl)-3,4-dihydropyrido[2,1-c][1,2,4]thiadiazine 2,2-dioxide]	90%
O=S1(=O)CCN2CCC[C@@H](c3ccc(-c4ccc(F)c(Cl)c4)cc3)C2=N1 [Example 226, (9S)-9-(3′-chloro-4′-fluorobiphenyl-4-yl)-3,4,6,7,8,9-hexahydropyrido[2,1-c][1,2,4]thiadiazine 2,2-dioxide]	79%
O=S1(=O)CCN2C=CC=C(c3ccc(-n4cccn4)cc3)C2=N1 [Example 239, 9-[4-(1H-pyrazol-1-yl)phenyl]-3,4-dihydropyrido[2,1-c][1,2,4]thiadiazine 2,2-dioxide]	88%
O=S1(=O)CCN2CCC[C@@H](c3ccc(Oc4cc(C(F)(F)F)ccc4Cl)cc3)C2=N1 [Example 160, (9S)-9-{4-[2-chloro-5-(trifluoromethyl)phenoxy]phenyl}-3,4,6,7,8,9-hexahydropyrido[2,1-c][1,2,4]thiadiazine 2,2-dioxide]	78%
CC1CC(c2ccc(Oc3cccc(C(C)(F)F)c3)cc2)C2=NS(=O)(=O)CCN2C1 (stereo not shown) [Example 171, 9-{4-[3-(1,1-difluoroethyl)phenoxy]phenyl}-7-methyl-3,4,6,7,8,9-hexahydropyrido[2,1-c][1,2,4]thiadiazine 2,2-dioxide]	87%
O=S1(=O)CCN2C=CC=C(c3ccc(C(F)(F)c4ccccc4)cc3)C2=N1 [Example 162, 9-{4-[difluoro(phenyl)methyl]phenyl}-3,4-dihydropyrido[2,1-c][1,2,4]thiadiazine 2,2-dioxide]	56%

same assay, conditions: test compound 30 μM with glutamic acid final 3 mM, change in fluorescence in 3 min, 100% = 3 mM glutamic acid + 300 μM cyclothiazide, 0% = 3 mM glutamic acid only

SMILES	activity (%)
COc1ccc2ccc(OC3CCCN4CCS(=O)(=O)N=C34)cc2c1 (stereo not shown) [Example 462, 9-[(7-methoxynaphthalen-2-yl)oxy]-3,4,6,7,8,9-hexahydropyrido[2,1-c][1,2,4]thiadiazine 2,2-dioxide]	69%
Cc1cc(C(F)(F)F)ccc1Oc1ccc(C2CCCN3CCS(=O)(=O)N=C23)cc1 (stereo not shown) [Example 122, 9-{4-[2-methyl-4-(trifluoromethyl)phenoxy]phenyl}-3,4,6,7,8,9-hexahydropyrido[2,1-c][1,2,4]thiadiazine 2,2-dioxide]	58%
Cc1ccc(Oc2ccc(C3CCCN4CCS(=O)(=O)N=C34)cc2)cc1C (stereo not shown) [Example 135, 9-[4-(3,4-dimethylphenoxy)phenyl]-3,4,6,7,8,9-hexahydropyrido[2,1-c][1,2,4]thiadiazine 2,2-dioxide]	59%
CCCCn1ccc2cc(C3CCCN4CCS(=O)(=O)N=C34)ccc21 (stereo not shown) [Example 294, 9-(1-butyl-1H-indol-5-yl)-3,4,6,7,8,9-hexahydropyrido[2,1-c][1,2,4]thiadiazine 2,2-dioxide]	82%
O=S1(=O)CCN2C=CC=C(c3ccc(-n4nc(C(F)(F)F)cc4C4CC4)cc3)C2=N1 [Example 299, 9-{4-[5-cyclopropyl-3-(trifluoromethyl)-1H-pyrazol-1-yl]phenyl}-3,4-dihydropyrido[2,1-c][1,2,4]thiadiazine 2,2-dioxide]	88%
O=S1(=O)CCN2CCCC(c3ccc(C4(c5ccccc5)CCC4)cc3)C2=N1 (stereo not shown) [Example 321, 9-[4-(1-phenylcyclobutyl)phenyl]-3,4,6,7,8,9-hexahydropyrido[2,1-c][1,2,4]thiadiazine 2,2-dioxide]	64%
Cc1cc(C(F)(F)F)ccc1Oc1ccc(C2CCCN3CCS(=O)(=O)N=C23)cc1 (stereo not shown) [Example 123, 9-{4-[2-methyl-4-(trifluoromethyl)phenoxy]phenyl}-3,4,6,7,8,9-hexahydropyrido[2,1-c][1,2,4]thiadiazine 2,2-dioxide]	57%
CCc1cccc(Oc2ccc(C3=CC=CN4CCS(=O)(=O)N=C34)cc2)c1 [Example 130, 9-[4-(3-ethylphenoxy)phenyl]-3,4-dihydropyrido[2,1-c][1,2,4]thiadiazine 2,2-dioxide]	69%
CC(C)c1ccc(/C=C/C2=CC=CN3CCS(=O)(=O)N=C23)cc1 [Example 51, 9-{(E)-2-[4-(1-methylethyl)phenyl]ethenyl}-3,4-dihydropyrido[2,1-c][1,2,4]thiadiazine 2,2-dioxide]	87%
CC(C)(C)Oc1ccc(C2=CC=CN3CCS(=O)(=O)N=C23)cc1 [Example 411, 9-(4-tert-butoxyphenyl)-3,4-dihydropyrido[2,1-c][1,2,4]thiadiazine 2,2-dioxide]	86%
Cc1ccc(C2=CC=CN3CCS(=O)(=O)N=C23)cc1F [Example 423, 9-(3-fluoro-4-methylphenyl)-3,4-dihydropyrido[2,1-c][1,2,4]thiadiazine 2,2-dioxide]	80%
Cc1cc(C(F)(F)F)nn1-c1ccc(C2=CC=CN3CCS(=O)(=O)N=C23)cc1 [Example 300, 9-{4-[5-methyl-3-(trifluoromethyl)-1H-pyrazol-1-yl]phenyl}-3,4-dihydropyrido[2,1-c][1,2,4]thiadiazine 2,2-dioxide]	93%
Cc1cccc(Oc2ccc(C3CCCN4CCS(=O)(=O)N=C34)cc2)c1 (stereo not shown) [Example 119, 9-[4-(3-methylphenoxy)phenyl]-3,4,6,7,8,9-hexahydropyrido[2,1-c][1,2,4]thiadiazine 2,2-dioxide]	92%
Cc1ccc(Oc2ccc(C3CCCN4CCS(=O)(=O)N=C34)cc2)cc1 (stereo not shown) [Example 108, 9-[4-(4-methylphenoxy)phenyl]-3,4,6,7,8,9-hexahydropyrido[2,1-c][1,2,4]thiadiazine 2,2-dioxide]	68%
Cc1cc(Oc2ccc(C3=CC=CN4CCS(=O)(=O)N=C34)cc2)ccc1F [Example 111, 9-[4-(4-fluoro-3-methylphenoxy)phenyl]-3,4-dihydropyrido[2,1-c][1,2,4]thiadiazine 2,2-dioxide]	58%
Cc1cccc(Oc2ccc(C3CCCN4CCS(=O)(=O)N=C34)cc2)c1 (stereo not shown) [Example 118, 9-[4-(3-methylphenoxy)phenyl]-3,4,6,7,8,9-hexahydropyrido[2,1-c][1,2,4]thiadiazine 2,2-dioxide]	79%
